Reference: article PMC10180054, “Design, Synthesis and Biological Evaluation of Novel Pleuromutilin Derivatives Containing 6-Chloro-1-R-1H-pyrazolo[3,4-d]pyrimidine-4-amino Side Chain” (Molecules, 2023)
In brackets after ≈: the same amount, converted by molar mass.

How the values were obtained:
S. aureus 144 = assay: MIC/MBC by broth dilution (CLSI); assay type: cell-based; conditions: Staphylococcus aureus; S. aureus 144 (clinical strain)
Experimental: (§1) The in vitro antimicrobial activity of the pleuromutilin derivatives was assessed against MRSA ATCC 43300, S. aureus ATCC 29213, S. aureus 144 and S. aureus AD3 according to the Clinical and Laboratory Standards Institute (CLSI). Tiamulin was used as a positive control drug. The results were summarized as the minimum inhibitory concentration (MIC) and the minimum bactericidal concentration (MBC) in Table 1 and Table 2. In addition, MIC results for the pleuromutilin derivatives against four Gram-negative bacteria are supplied in Tables S2 and S3.
(§2) The MIC and MBC values of the synthesized novel pleuromutilin derivatives against MRSA ATCC 43300, S. aureus ATCC 29213, S. aureus 144 and S. aureus AD3 were measured. Tiamulin was used as a positive control drug. The MIC and MBC values were manipulated by broth dilution according to the Clinical and Laboratory Standards (CLSI). Each compound to be measured was dissolved in a solution of 95% deionized water, 2.5% dimethyl sulfoxide (DMSO) and 2.5% Tween-80 with a concentration of 1280 µg/mL. Subsequently, serial twofold dilutions were made in a concentration range from 64 µg/mL to 0.0625 µg/mL. The working bacterial suspension was inoculated into each well, which provided the final inoculum density of 5 × 10^5 CFU/mL. Three parallel experiments were performed for each compound.
(§3) Overall, 25 µL of the bacterial solution from the wells with no obvious bacterial growth was inoculated on MH agar plates. Then, the inoculated MH agar plates were further cultured at 37 °C for 24 h.

S. aureus AD3 = assay: MIC/MBC by broth dilution (CLSI); assay type: cell-based; conditions: Staphylococcus aureus; S. aureus AD3 (clinical strain)
Experimental: as §1, §2, §3

S. aureus ATCC 29213 = assay: MIC/MBC by broth dilution (CLSI); assay type: cell-based; conditions: Staphylococcus aureus, ATCC29213; for MBC: S. aureus ATCC 29213; for MIC: S. aureus ATCC 29213, broth dilution, 24 h, 37 °C
Experimental: as §1, §2, §3

MRSA ATCC 43300 [1] = assay: Constant concentration time–kill curves; assay type: cell-based, Staphylococcus aureus; conditions: for type of bactericidal kinetics: time–kill curves, 1 to 32 × MIC
Experimental: Time–kill kinetic assays were performed, which were used to investigate the in vitro bactericidal kinetic effect of compounds 12c, 19c, 22c and tiamulin.
Time–kill curve assays were established with the MIC value to investigate the antibacterial effect of constant drug concentration on MRSA. […] MRSA ATCC 43300 was incubated in MH broth at 37 °C for 4.5 h and diluted to 1 × 10^6 CFU/mL in MH broth. The saline control group was subjected to the same schedule but 0.9% saline water was added instead of the test compound. All the samples were incubated in an oscillating thermostatic at 37 °C, and then 100 μL of the mixture was extracted to 900 μL of sterile saline (0.9%) at 0, 3, 6, 9, 12 and 24 h, respectively. Samples were serially diluted 10-fold in sterile saline (0.9%) and inoculated onto agar plates. The colonies were counted after incubation at 37 °C for 24 h. Three independent experiments were performed according to our previous work. Time–kill curves were constructed by plotting the log10 CFU per millilitre versus time, and the change in bacterial concentration was determined.

MRSA ATCC 43300 [2] = assay: MIC/MBC by broth dilution (CLSI); assay type: cell-based, Staphylococcus aureus; conditions: for MBC / MIC: Staphylococcus aureus; for MBC: MRSA ATCC 43300, 99.9% of the bacteria killed; for MIC: MRSA ATCC 43300, broth dilution, 24 h, 37 °C, read-out: MIC
Experimental: as §1, §2, §3

MRSA ATCC 43300 [3] = assay: Neutropenic murine thigh infection model; assay type: in vivo; conditions: neutropenic mice, 20 mg/kg, 24 h after dosing, n = 6/group
Experimental: Therefore, the in vivo efficacy of compounds 12c and 22c were assessed using the murine neutropenic thigh infection model. Mice groups treated with saline and tiamulin were chosen as the negative and positive controls.
Model experiments of neutropenic mouse thigh infection were manipulated as described in the literature. Female, six-week-old, specific-pathogen-free mice weighing approximately 23~26 g were used throughout the study. Mice were rendered neutropenic by injection of cyclophosphamide (Mead Johnson Pharmaceuticals, Evansville, IN) on day 4 (150 mg/kg) and day 1 (100 mg/kg) before the experiment. The neutrophil numbers in mice blood should be <0.1 × 10^9/L [34]. In total, 0.1 mL of MH broth of MRSA (10^7 CFU/mL) was inoculated into each thigh of the neutropenic mice. Mice were divided into 4 groups (6 mice per group), including control (sterile saline), compounds 12c, 22c and tiamulin groups. After 3 h post-infection, the corresponding drugs were injected into each mouse’s thigh. Mice were euthanized following intravenous injection for 24 h. Thigh tissue of each mouse was removed, collected, weighed and homogenized in 3 mL of ice sterile saline. Six ten-fold serial dilutions were performed and 25 μL of the bacterial solution from each tube was plated on MH agar plates. The resulting colonies were counted after 24 h incubation at 37 °C. The protocol for this study was reviewed and approved by the Institutional Animal Care and Use Committee of the South China Agricultural University.

MRSA ATCC 43300 [4] = assay: Post-antibiotic effect (PAE); assay type: cell-based, Staphylococcus aureus
Experimental: PAE has been considered as pharmacodynamic assistance which provides a reference for the rational formulation of dosing regimen. PAE refers to the temporary suppression of bacterial growth following transient antibiotic treatment. PAE assays were conducted for compounds 12c and 22c.
PAE is calculated from growth curves on the difference in time required for the number (1 log10 CFU/mL) of drug-exposed and unexposed microbes. […] The PAE values of compounds 12c and 22c increased with increasing incubation time.
PAE of compounds 12c and 22c on MRSA ATCC 43300 was determined using MH broth according to our previous work. The final concentration of MRSA was 1 × 10^6 CFU/mL by dilution with MH broth. Compounds 12c, 22c and tiamulin were supplemented in the suspension at a final concentration of 2 × MIC and 4 × MIC, respectively. The negative control group contained untreated MRSA bacterial cells. The test tubes were incubated with a 37 °C constant temperature vibration incubator for 1 and 2 h. After incubation, the test compound was removed from the sample by diluting 1000-fold with the preheated MH broth. Next, 100 μL of suspension from each culture was 10-fold diluted in sterile saline and inoculated on MH agar plates at 0, 2, 4, 6 and 8 h after inoculation. The number of colonies was calculated after incubation at 37 °C for 24 h. The experiments were performed in triplicate.

SMILES | melting point [°C] | MBC (S. aureus 144) [µg/mL] | MIC (S. aureus 144) [µg/mL] | MBC (S. aureus AD3) [µg/mL] | MIC (S. aureus AD3) [µg/mL] | MBC (S. aureus ATCC 29213) [µg/mL] | MIC (S. aureus ATCC 29213) [µg/mL] | MRSA killed in time–kill assay (MRSA ATCC 43300 [1]; 2 × MIC, 24 h incubation) [%] | reduction of MRSA in time–kill assay (MRSA ATCC 43300 [1]; 2 × MIC, 24 h incubation) [log10 CFU/mL] | reduction of MRSA in time–kill assay (MRSA ATCC 43300 [1]; 4 × MIC) [log10 CFU/mL] | type of bactericidal kinetics (MRSA ATCC 43300 [1]) | MBC (MRSA ATCC 43300 [2]) [µg/mL] | MIC (MRSA ATCC 43300 [2]) [µg/mL] | MBC/MIC ratio (MRSA ATCC 43300 [2]; against MRSA) | reduction of MRSA load in thigh vs growth control (MRSA ATCC 43300 [3]) [log10 CFU/mL] | PAE (MRSA ATCC 43300 [4]; 2 × MIC, exposure for 1 h) [h] | PAE (MRSA ATCC 43300 [4]; 2 × MIC, exposure for 2 h) [h] | PAE (MRSA ATCC 43300 [4]; 4 × MIC, exposure for 1 h) [h] | PAE (MRSA ATCC 43300 [4]; 4 × MIC, exposure for 2 h) [h]
C=C[C@]1(C)C[C@@H](OC(=O)CSc2ccc(Nc3nc(Cl)nc4c3cnn4-c3ccc(F)cc3)cc2)[C@]2(C)[C@H](C)CC[C@]3(CCC(=O)[C@H]32)[C@@H](C)[C@@H]1O [Compound 19c, 22-[4-(6-Chloro-1-(4-fluorophenyl)-1H-pyrazolo[3,4-d]pyrimidine-4-yl)amino-Phenylsulfanyl]-22-deoxypleuromutilin] | 141 to 144 | 2 (≈ 2.73 µM) | 1 (≈ 1.37 µM) | 1 (≈ 1.37 µM) | 0.25 (≈ 0.341 µM) | 0.5 (≈ 0.683 µM) | 0.25 (≈ 0.341 µM) | 99.9 | −3.57 | −5.16 | time-dependent | 0.5 (≈ 0.683 µM) | 0.25 (≈ 0.341 µM) | ≤ 2 |  |  |  |  | 
C=C[C@]1(C)C[C@@H](OC(=O)CNc2nc(Cl)nc3c2cnn3-c2ccc(Cl)cc2)[C@]2(C)[C@H](C)CC[C@]3(CCC(=O)[C@H]32)[C@@H](C)[C@@H]1O [Compound 25b, 22-[(6-Chloro-1-(4-chlorophenyl)-1H-pyrazolo[3,4-d]pyrimidine-4-yl)amino]-22-deoxypleuromutilin] | 107 to 111 |  | > 64 |  | > 64 |  | > 64 |  |  |  |  |  | > 64 |  |  |  |  |  | 
C=C[C@]1(C)C[C@@H](OC(=O)CSc2ccc(Nc3nc(Cl)nc4c3cnn4-c3ccc(Cl)cc3)cc2)[C@]2(C)[C@H](C)CC[C@]3(CCC(=O)[C@H]32)[C@@H](C)[C@@H]1O [Compound 25c, 22-[4-(6-Chloro-1-(4-chlorophenyl)-1H-pyrazolo[3,4-d]pyrimidine-4-yl)amino-Phenylsulfanyl]-22-deoxypleuromutilin] | 124 to 129 |  | > 64 | 32 (≈ 42.7 µM) | 8 (≈ 10.7 µM) | > 64 | 16 (≈ 21.4 µM) |  |  |  |  | 16 (≈ 21.4 µM) | 8 (≈ 10.7 µM) |  |  |  |  |  | 
C=C[C@]1(C)C[C@@H](OC(=O)CNc2nc(Cl)nc3c2cnn3-c2cc(Cl)cc(Cl)c2)[C@]2(C)[C@H](C)CC[C@]3(CCC(=O)[C@H]32)[C@@H](C)[C@@H]1O [Compound 26b, 22-[(6-Chloro-1-(3,5-dichlorophenyl)-1H-pyrazolo[3,4-d]pyrimidine-4-yl)amino]-22-deoxypleuromutilin] | 151 to 156 |  | > 64 |  | > 64 |  | > 64 |  |  |  |  |  | > 64 |  |  |  |  |  | 
C=C[C@]1(C)C[C@@H](OC(=O)CSc2ccc(Nc3nc(Cl)nc4c3cnn4-c3cc(Cl)cc(Cl)c3)cc2)[C@]2(C)[C@H](C)CC[C@]3(CCC(=O)[C@H]32)[C@@H](C)[C@@H]1O [Compound 26c, 22-[4-(6-Chloro-1-(3,5-dichlorophenyl)-1H-pyrazolo[3,4-d]pyrimidine-4-yl)amino-Phenylsulfanyl]-22-deoxypleuromutilin] | 137 to 139 |  | > 64 |  | > 64 |  | > 64 |  |  |  |  |  | > 64 |  |  |  |  |  | 
C=C[C@]1(C)C[C@@H](OC(=O)CNc2nc(Cl)nc3c2cnn3-c2cccc([N+](=O)[O-])c2)[C@]2(C)[C@H](C)CC[C@]3(CCC(=O)[C@H]32)[C@@H](C)[C@@H]1O [Compound 27b, 22-[(6-Chloro-1-(3-nitrophenyl)-1H-pyrazolo[3,4-d]pyrimidine-4-yl)amino]-22-deoxypleuromutilin] | 131 to 135 |  | > 64 |  | > 64 |  | > 64 |  |  |  |  |  | > 64 |  |  |  |  |  | 
C=C[C@]1(C)C[C@@H](OC(=O)CSc2ccc(Nc3nc(Cl)nc4c3cnn4-c3cccc([N+](=O)[O-])c3)cc2)[C@]2(C)[C@H](C)CC[C@]3(CCC(=O)[C@H]32)[C@@H](C)[C@@H]1O [Compound 27c, 22-[4-(6-Chloro-1-(3-nitrophenyl)-1H-pyrazolo[3,4-d]pyrimidine-4-yl)amino-Phenylsulfanyl]-22-deoxypleuromutilin] | 137 to 139 |  | > 64 |  | > 64 |  | > 64 |  |  |  |  |  | > 64 |  |  |  |  |  | 
C=C[C@]1(C)C[C@@H](OC(=O)CNc2nc(Cl)nc3c2cnn3-c2ccc3ccccc3c2)[C@]2(C)[C@H](C)CC[C@]3(CCC(=O)[C@H]32)[C@@H](C)[C@@H]1O [Compound 28b, 22-[(6-Chloro-1-(naphthalen-2-yl)-1H-pyrazolo[3,4-d]pyrimidine-4-yl)amino]-22-deoxypleuromutilin] | 123 to 125 | > 64 | 32 (≈ 48.8 µM) | > 64 | 32 (≈ 48.8 µM) | > 64 | 32 (≈ 48.8 µM) |  |  |  |  | > 64 | 32 (≈ 48.8 µM) |  |  |  |  |  | 
C=C[C@]1(C)C[C@@H](OC(=O)CSc2ccc(Nc3nc(Cl)nc4c3cnn4-c3ccc4ccccc4c3)cc2)[C@]2(C)[C@H](C)CC[C@]3(CCC(=O)[C@H]32)[C@@H](C)[C@@H]1O [Compound 28c, 22-[4-(6-Chloro-1-(naphthalen-2-yl)-1H-pyrazolo[3,4-d]pyrimidine-4-yl-yl)amino-Phenylsulfanyl]-22-deoxypleuromutilin] | 115 to 118 |  | > 64 |  | > 64 |  | > 64 |  |  |  |  |  | > 64 |  |  |  |  |  | 
C=C[C@]1(C)C[C@@H](OC(=O)CSCCN(CC)CC)[C@]2(C)[C@H](C)CC[C@]3(CCC(=O)[C@H]32)[C@@H](C)[C@@H]1O [Tiamulin, tiamulin, reference compound] |  | 2 (≈ 4.05 µM) | 1 (≈ 2.03 µM) | 2 (≈ 4.05 µM) | 1 (≈ 2.03 µM) | 1 (≈ 2.03 µM) | 1 (≈ 2.03 µM) | 99.9 | −3.78 |  | time-dependent | 1 (≈ 2.03 µM) | 0.5 (≈ 1.01 µM) |  | −0.56 | 0.27 | 1.23 | 0.42 | 1.31
